Assay results as given in patent publication US20200068891A1, “Synergetic Biocidal Compositions Comprising 5-Chlorine-2-Methylisothiazolin-3-One” (priority 2017, published 2020).

Key:
[1] = tested on: Pseudomonas putida (DSM 25068); assay: Synergy test: minimum inhibitory concentrations in microtiter plates, Pseudomonas putida in Mueller-Hinton broth; format: cell-based; details: 48 hours at 30° C.; for Synergy index Qa/QA + Qb/QB: below 1 = synergism; for Qa (CMIT): concentration of CMIT indicating an end point / Qa (CIT): concentration of CMIT indicating an end point: as sole agent (QA) where Qb is 0
Description: (Pseudomonas) or 25° C. (Yarrowia).
Kull et al., Applied Microbiology, Vol. 9 (1961), p. 538.
QA =concentration of component A as sole biocide
QB =concentration of component B as sole biocide

[2] = tested on: Yarrowia lipolytica (DSM 32369); assay: Synergy test: minimum inhibitory concentrations in microtiter plates, Yarrowia lipolytica in Sabouraud Maltose broth; details: 48 hours at 25° C.; for Synergy index Qa/QA + Qb/QB: below 1 = synergism; for Qa (CMIT) / Qa (CMIT): concentration of CMIT indicating an end point: as sole agent (QA) where Qb is 0
Description: The test organisms used were the Gram-negative bacterium Pseudomonas putida (DSM 25068) and the yeast fungus Yarrowia lipolytica (DSM 32369). For this, mixtures with different concentrations of the particular active substances were prepared and tested in regard to their effect on Pseudomonas putida and Yarrowia lipolytica. The testing was done in Milller-Hinton broth MHB (in the case of Pseudomonas) or Sabouraud Maltose broth SMB (in the case of Yarrowia) with a cell density of 10^6 germs per ml.
The incubation time of the microtiter plates was 48 hours at 30° C. (Pseudomonas) or 25° C. (Yarrowia). After 48 hours the batches were evaluated for turbidity due to growth and, in addition, the optical density was determined by photometry. In this way, the minimum inhibitory concentrations (MHK) were determined for the two active substances individually and in combination.
The resulting synergism was represented numerically by calculating the synergy index (SI). […] There, the SI is calculated by the following formula: synergy index SI =Qa/QA +Qb/QB
Qa =concentration of component A in the mixture A+B
Qb =concentration of component B in the mixture A+B
If the synergy index has a value over 1, this means that an antagonism is present. If the synergy index takes on the value 1, this means that an addition of the effect of the two biocides/compounds is present. If the synergy index takes on a value below 1, this means that a synergism exists for the two biocides. If the synergy index has a value of more than 1, this means that an antagonism exists.

[3] = in the mixture with CMIT, as sole agent (QB) where Qa is 0

`CCCCNC(=O)OCC#CI` [IPBC, 3-iodo-2-propynyl butylcarbamate] was tested, and the “Synergy index Qa/QA + Qb/QB” value ([1]; CMIT and IPBC) was 1.00, the “Qb (IPBC): concentration of IPBC indicating an end point” value [1, 3] was 1000 ppm and the “Synergy index Qa/QA + Qb/QB” value ([2]; CMIT and IPBC) was 1.00. The “Qb (IPBC): concentration of IPBC indicating an end point” value [2, 3] was 2.50 ppm.
In the case of `COC(=O)c1ccc(O)cc1` [methylparaben], the “Synergy index Qa/QA + Qb/QB” value ([1]; CMIT and methylparaben) is reported as 1.00 and the “Qb (methylparaben): concentration of methylparaben indicating an end point” value [1, 3] is reported as 2000 ppm.
For `CCCCCCCCCC[N+](C)(C)CCCCCCCCCC.[Cl-]` [DDAC, didecyldimethylammonium chloride], the “Synergy index Qa/QA + Qb/QB” value ([1]; CMIT and DDAC) was 1.00 and the “Qb (DDAC): concentration of DDAC indicating an end point” value [1, 3] was 7.5 ppm.
With `CC(O)(P(=O)(O)O)P(=O)(O)O` [HEDP, (1-hydroxyethylidene)bis-phosphonic acid] the “Synergy index Qa/QA + Qb/QB” value ([1]; CMIT and HEDP) was 1.00 and the “Qb (HEDP): concentration of HEDP indicating an end point” value [1, 3] was 250 ppm.
In the case of `O=CCCCC=O` [GDA, glutardialdehyde], the “Synergy index Qa/QA + Qb/QB” value ([1]; CMIT and GDA) is reported as 1.00 and the “Qb (GDA): concentration of GDA indicating an end point” value [1, 3] is reported as 500 ppm.
With `CC(=O)C1C(=O)C=C(C)OC1=O` (centres unmarked) [dehydracetic acid] the “Synergy index Qa/QA + Qb/QB” value ([2]; CMIT and dehydracetic acid) was 1.00 and the “Qb (dehydracetic acid): concentration of dehydracetic acid indicating an end point” value [2, 3] was 200 ppm.
With `C/C=C/C=C/C(=O)O` [sorbic acid] the “Synergy index Qa/QA + Qb/QB” value ([2]; CMIT and sorbic acid) was 1.00 and the “Qb (sorbic acid): concentration of sorbic acid indicating an end point” value [2, 3] was 750 ppm.
`CCCCCCCCn1sccc1=O` [OIT, octylisothiazolinone] was tested, and the “Synergy index Qa/QA + Qb/QB” value ([1]; CMIT and OIT) was 1.00, the “Qb (OIT): concentration of OIT indicating an end point” value [1, 3] was 300 ppm and the “Synergy index Qa/QA + Qb/QB” value ([2]; CMIT and OIT) was 1.00. The “Qb (OIT): concentration of OIT indicating an end point” value [2, 3] was 2.00 ppm.
In the case of `O=C(O)c1ccccc1O` [salicylic acid], the “Synergy index Qa/QA + Qb/QB” value ([2]; CMIT and salicylic acid) is reported as 1.00 and the “Qb (salicylic acid): concentration of salicylic acid indicating an end point” value [2, 3] is reported as 3000 ppm.
With `CCOC(=O)c1ccc(O)cc1` [ethylparaben] the “Synergy index Qa/QA + Qb/QB” value ([1]; CMIT and ethylparaben) was 1.00 and the “Qb (ethylparaben): concentration of ethylparaben indicating an end point” value [1, 3] was 1500 ppm.
benzalkonium chloride [BAC] was tested, and the “Synergy index Qa/QA + Qb/QB” value ([1]; CMIT and BAC) was 1.00 and the “Qb (BAC): concentration of BAC indicating an end point” value [1, 3] was 30 ppm.
For `CCCCn1sc2ccccc2c1=O` [BBIT, N-butyl-benzisothiazolinone], the “Synergy index Qa/QA + Qb/QB” value ([1]; CMIT and BBIT) was 1.00, the “Qb (BBIT): concentration of BBIT indicating an end point” value [1, 3] was 20 ppm and the “Synergy index Qa/QA + Qb/QB” value ([2]; CMIT and BBIT) was 1.00. The “Qb (BBIT): concentration of BBIT indicating an end point” value [2, 3] was 3.00 ppm.
In the case of `O=C(O)c1ccccc1` [benzoic acid], the “Qb (benzoic acid): concentration of benzoic acid indicating an end point” value [2, 3] is reported as 2500 ppm.
With `OCCc1ccccc1` [phenetyl alcohol] the “Synergy index Qa/QA + Qb/QB” value ([1]; CMIT and phenetyl alcohol) was 1.00 and the “Qb (phenetyl alcohol): concentration of phenetyl alcohol indicating an end point” value [1, 3] was 3000 ppm.
`C=O` [HCHO, formaldehyde] was tested, and the “Synergy index Qa/QA + Qb/QB” value ([1]; CMIT and HCHO) was 1.00 and the “Qb (HCHO): concentration of HCHO indicating an end point” value [1, 3] was 500 ppm.
In the case of `Cn1sc(Cl)cc1=O` [CMIT, 5-chloro-2-methylisothiazolin-3-one], the “Synergy index Qa/QA + Qb/QB” value ([1]; CMIT and BAC) is reported as 1.00, the “Synergy index Qa/QA + Qb/QB” value ([1]; CMIT and BBIT) is reported as 1.00 and the “Synergy index Qa/QA + Qb/QB” value ([1]; CMIT and DDAC) is reported as 1.00. For the same compound, the “Synergy index Qa/QA + Qb/QB” value ([1]; CMIT and EDDS) was 1.00, the “Synergy index Qa/QA + Qb/QB” value ([1]; CMIT and GDA) was 1.00 and the “Synergy index Qa/QA + Qb/QB” value ([1]; CMIT and HCHO) was 1.00. For the same compound, the “Synergy index Qa/QA + Qb/QB” value ([1]; CMIT and HEDP) was 1.00, the “Synergy index Qa/QA + Qb/QB” value ([1]; CMIT and IPBC) was 1.00 and the “Synergy index Qa/QA + Qb/QB” value ([1]; CMIT and OIT) was 1.00. The “Synergy index Qa/QA + Qb/QB” value ([1]; CMIT and PASP Na salt) was 1.00, the “Synergy index Qa/QA + Qb/QB” value ([1]; CMIT and ethylparaben) was 1.00 and the “Synergy index Qa/QA + Qb/QB” value ([1]; CMIT and methylparaben) was 1.00. The “Synergy index Qa/QA + Qb/QB” value ([1]; CMIT and phenetyl alcohol) was 1.00, the “Qa (CMIT): concentration of CMIT indicating an end point” value (shortened to “Qa (CMIT): concentration”) ([1]; in the mixture with BAC) was 2 ppm and the “Qa (CIT): concentration of CMIT indicating an end point” value (shortened to “Qa (CIT): concentration”) ([1]; in the mixture with BBIT) was 2 ppm. For the same compound, the “Qa (CMIT): concentration” value ([1]; in the mixture with DDAC) was 2 ppm, the “Qa (CMIT): concentration” value ([1]; in the mixture with EDDS) was 2 ppm and the “Qa (CMIT): concentration” value ([1]; in the mixture with GDA) was 2 ppm. The “Qa (CMIT): concentration” value ([1]; in the mixture with HCHO) was 2 ppm, the “Qa (CMIT): concentration” value ([1]; in the mixture with HEDP) was 2 ppm and the “Qa (CIT): concentration” value ([1]; in the mixture with IPBC) was 2 ppm. The “Qa (CIT): concentration” value ([1]; in the mixture with OIT) was 2 ppm, the “Qa (CMIT): concentration” value ([1]; in the mixture with PASP Na salt) was 2 ppm and the “Qa (CMIT): concentration” value ([1]; in the mixture with ethylparaben) was 2 ppm. The “Qa (CMIT): concentration” value ([1]; in the mixture with methylparaben) was 2 ppm, the “Qa (CMIT): concentration” value ([1]; in the mixture with phenetyl alcohol) was 2 ppm and the “Synergy index Qa/QA + Qb/QB” value ([2]; CMIT and BBIT) was 1.00. The “Synergy index Qa/QA + Qb/QB” value ([2]; CMIT and IPBC) was 1.00, the “Synergy index Qa/QA + Qb/QB” value ([2]; CMIT and OIT) was 1.00 and the “Synergy index Qa/QA + Qb/QB” value ([2]; CMIT and dehydracetic acid) was 1.00. The “Synergy index Qa/QA + Qb/QB” value ([2]; CMIT and salicylic acid) was 1.00, the “Synergy index Qa/QA + Qb/QB” value ([2]; CMIT and sorbic acid) was 1.00 and the “Qa (CMIT)” value ([2]; in the mixture with BBIT) was 2.50 ppm. The “Qa (CMIT)” value ([2]; in the mixture with IPBC) was 2.50 ppm, the “Qa (CMIT)” value ([2]; in the mixture with OIT) was 2.50 ppm and the “Qa (CMIT): concentration” value ([2]; in the mixture with benzoic acid) was 2.5 ppm. The “Qa (CMIT): concentration” value ([2]; in the mixture with dehydracetic acid) was 2.5 ppm, the “Qa (CMIT): concentration” value ([2]; in the mixture with salicylic acid) was 2.5 ppm and the “Qa (CMIT): concentration” value ([2]; in the mixture with sorbic acid) was 2.5 ppm.
